pIC50: −log10 of the molar value.
Columns and labels:
Format in all cases: biochemical
[1] = molecular target: T1, FLT1/VEGFR1 (Homo sapiens, UniProt P17948); experiment: Reaction Biology Kinase HotSpot radiometric kinase assay
T1 construct: purchased Reaction Biology Corp. (Kinase HotSpot service)

[2] = molecular target: T2, JAK3 (Homo sapiens, UniProt P52333); experiment: as above
T2 construct: purchased Reaction Biology Corp. (Kinase HotSpot service)

[3] = molecular target: T3, FLT3 (F594_R595 ins R) (Homo sapiens, UniProt P36888, INS594R); experiment: Enzymatic activity against FLT3 mutants
T3 construct: purchased Reaction Biology Corp. (Kinase HotSpot service)

[4] = molecular target: T4, BTK (Homo sapiens, UniProt Q06187); experiment: Reaction Biology Kinase HotSpot radiometric kinase assay
T4 construct: purchased Reaction Biology Corp. (Kinase HotSpot service)

[5] = molecular target: T5, Aurora A (Homo sapiens, UniProt O14965); experiment: as above
T5 construct: purchased Reaction Biology Corp. (Kinase HotSpot service)

[6] = molecular target: T6, FMS (Homo sapiens, UniProt P07333); experiment: as above
T6 construct: purchased Reaction Biology Corp. (Kinase HotSpot service)

[7] = molecular target: T7, ERK1 (Homo sapiens, UniProt P27361); experiment: as above; conditions: 10 µM
T7 construct: purchased Reaction Biology Corp. (Kinase HotSpot service)

[8] = molecular target: P38a/MAPK14 (Homo sapiens, UniProt Q16539); experiment: as above
Chain of P38a/MAPK14 (Q16539 whole entry): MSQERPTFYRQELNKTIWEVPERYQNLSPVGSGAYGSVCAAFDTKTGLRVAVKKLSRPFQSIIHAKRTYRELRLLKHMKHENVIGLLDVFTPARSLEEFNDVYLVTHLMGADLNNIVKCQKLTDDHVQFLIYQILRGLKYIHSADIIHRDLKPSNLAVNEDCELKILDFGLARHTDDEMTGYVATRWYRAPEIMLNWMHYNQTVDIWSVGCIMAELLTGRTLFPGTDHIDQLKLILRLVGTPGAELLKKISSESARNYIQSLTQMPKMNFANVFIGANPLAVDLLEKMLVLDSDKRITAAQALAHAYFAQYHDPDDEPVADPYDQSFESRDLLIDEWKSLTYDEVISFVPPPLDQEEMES

[9] = molecular target: T8, ALK (Homo sapiens, UniProt Q9UM73); experiment: as above
T8 construct: purchased Reaction Biology Corp. (Kinase HotSpot service)

[10] = molecular target: T9, AXL (Homo sapiens, UniProt P30530); experiment: as above
T9 construct: purchased Reaction Biology Corp. (Kinase HotSpot service)

[11] = molecular target: T10, MEK1 (Homo sapiens, UniProt Q02750); experiment: as above
T10 construct: purchased Reaction Biology Corp. (Kinase HotSpot service)
T10 sequence (Q02750 whole entry): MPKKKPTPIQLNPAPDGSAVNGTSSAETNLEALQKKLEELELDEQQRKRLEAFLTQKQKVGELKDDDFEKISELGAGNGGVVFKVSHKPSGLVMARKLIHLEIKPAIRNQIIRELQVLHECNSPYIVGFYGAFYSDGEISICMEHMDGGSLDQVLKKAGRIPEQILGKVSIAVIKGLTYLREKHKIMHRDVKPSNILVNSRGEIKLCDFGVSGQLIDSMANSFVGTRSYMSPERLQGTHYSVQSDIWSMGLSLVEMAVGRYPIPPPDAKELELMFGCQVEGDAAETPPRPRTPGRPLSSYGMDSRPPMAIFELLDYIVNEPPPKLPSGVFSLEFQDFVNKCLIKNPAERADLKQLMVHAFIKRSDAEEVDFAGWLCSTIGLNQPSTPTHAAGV

[12] = molecular target: T11, c-Kit (Homo sapiens, UniProt P10721); experiment: as above
T11 construct: purchased Reaction Biology Corp. (Kinase HotSpot service)

[13] = molecular target: T12, LYN (Homo sapiens, UniProt P07948); experiment: as above
T12 construct: purchased Reaction Biology Corp. (Kinase HotSpot service)

[14] = molecular target: T13, RON/MST1R (Homo sapiens, UniProt Q04912); experiment: as above
T13 construct: purchased Reaction Biology Corp. (Kinase HotSpot service)

[15] = molecular target: T14, RIPK3 (Homo sapiens, UniProt Q9Y572); experiment: as above; conditions: 10 µM
T14 construct: purchased Reaction Biology Corp. (Kinase HotSpot service)

[16] = molecular target: T15, LCK (Homo sapiens, UniProt P06239); experiment: as above
T15 construct: purchased Reaction Biology Corp. (Kinase HotSpot service)

[17] = molecular target: T16, c-Src (Homo sapiens, UniProt P12931); experiment: as above
T16 construct: purchased Reaction Biology Corp. (Kinase HotSpot service)

[18] = molecular target: T17, BRAF (V599E) (Homo sapiens, UniProt P15056, V600E); experiment: as above
T17 construct: purchased Reaction Biology Corp. (Kinase HotSpot service)
T17 sequence (P15056 416-766 V600E limits assumed): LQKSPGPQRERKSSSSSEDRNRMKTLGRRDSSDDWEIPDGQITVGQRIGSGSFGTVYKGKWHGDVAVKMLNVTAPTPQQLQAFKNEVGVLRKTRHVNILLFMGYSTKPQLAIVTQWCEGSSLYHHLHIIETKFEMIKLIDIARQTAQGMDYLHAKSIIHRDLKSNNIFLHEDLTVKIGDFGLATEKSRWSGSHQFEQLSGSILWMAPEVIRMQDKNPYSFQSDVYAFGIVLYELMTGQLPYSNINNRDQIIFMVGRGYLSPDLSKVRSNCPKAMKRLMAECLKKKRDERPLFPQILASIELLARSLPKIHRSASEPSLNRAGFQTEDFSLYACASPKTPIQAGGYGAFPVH

[19] = molecular target: T18, EGFR (Homo sapiens, UniProt P00533); experiment: as above
T18 construct: purchased Reaction Biology Corp. (Kinase HotSpot service)

[20] = molecular target: T19, c-MET (Homo sapiens, UniProt P08581); experiment: as above
T19 construct: purchased Reaction Biology Corp. (Kinase HotSpot service)

[21] = molecular target: T20, GSK3b (Homo sapiens, UniProt P49841); experiment: as above
T20 construct: purchased Reaction Biology Corp. (Kinase HotSpot service)

[22] = molecular target: T21, FLT3 (Y591_V592 ins VDFREYEYD) (Homo sapiens, UniProt P36888, INS591VDFREYEYD); experiment: Enzymatic activity against FLT3 mutants
T21 construct: purchased Reaction Biology Corp. (Kinase HotSpot service)

[23] = molecular target: T22, AKT1 (Homo sapiens, UniProt P31749); experiment: Reaction Biology Kinase HotSpot radiometric kinase assay
T22 construct: purchased Reaction Biology Corp. (Kinase HotSpot service)

[24] = molecular target: T23, FGFR3 (Homo sapiens, UniProt P22607); experiment: as above
T23 construct: purchased Reaction Biology Corp. (Kinase HotSpot service)

[25] = molecular target: FLT3 (F594_R595 ins EY) (Homo sapiens, UniProt P36888); experiment: Enzymatic activity against FLT3 mutants
[26] = molecular target: T24, PKA (Homo sapiens, UniProt P17612); experiment: Reaction Biology Kinase HotSpot radiometric kinase assay
T24 construct: purchased Reaction Biology Corp. (Kinase HotSpot service)

[27] = molecular target: T25, JNK3 (Homo sapiens, UniProt P53779); experiment: as above
T25 construct: purchased Reaction Biology Corp. (Kinase HotSpot service)

[28] = molecular target: T26, CAMKK1 (Homo sapiens, UniProt Q8N5S9); experiment: as above
T26 construct: purchased Reaction Biology Corp. (Kinase HotSpot service)

[29] = molecular target: T27, ROS/ROS1 (Homo sapiens, UniProt P08922); experiment: as above
T27 construct: purchased Reaction Biology Corp. (Kinase HotSpot service)
T27 sequence (P08922 28-2347): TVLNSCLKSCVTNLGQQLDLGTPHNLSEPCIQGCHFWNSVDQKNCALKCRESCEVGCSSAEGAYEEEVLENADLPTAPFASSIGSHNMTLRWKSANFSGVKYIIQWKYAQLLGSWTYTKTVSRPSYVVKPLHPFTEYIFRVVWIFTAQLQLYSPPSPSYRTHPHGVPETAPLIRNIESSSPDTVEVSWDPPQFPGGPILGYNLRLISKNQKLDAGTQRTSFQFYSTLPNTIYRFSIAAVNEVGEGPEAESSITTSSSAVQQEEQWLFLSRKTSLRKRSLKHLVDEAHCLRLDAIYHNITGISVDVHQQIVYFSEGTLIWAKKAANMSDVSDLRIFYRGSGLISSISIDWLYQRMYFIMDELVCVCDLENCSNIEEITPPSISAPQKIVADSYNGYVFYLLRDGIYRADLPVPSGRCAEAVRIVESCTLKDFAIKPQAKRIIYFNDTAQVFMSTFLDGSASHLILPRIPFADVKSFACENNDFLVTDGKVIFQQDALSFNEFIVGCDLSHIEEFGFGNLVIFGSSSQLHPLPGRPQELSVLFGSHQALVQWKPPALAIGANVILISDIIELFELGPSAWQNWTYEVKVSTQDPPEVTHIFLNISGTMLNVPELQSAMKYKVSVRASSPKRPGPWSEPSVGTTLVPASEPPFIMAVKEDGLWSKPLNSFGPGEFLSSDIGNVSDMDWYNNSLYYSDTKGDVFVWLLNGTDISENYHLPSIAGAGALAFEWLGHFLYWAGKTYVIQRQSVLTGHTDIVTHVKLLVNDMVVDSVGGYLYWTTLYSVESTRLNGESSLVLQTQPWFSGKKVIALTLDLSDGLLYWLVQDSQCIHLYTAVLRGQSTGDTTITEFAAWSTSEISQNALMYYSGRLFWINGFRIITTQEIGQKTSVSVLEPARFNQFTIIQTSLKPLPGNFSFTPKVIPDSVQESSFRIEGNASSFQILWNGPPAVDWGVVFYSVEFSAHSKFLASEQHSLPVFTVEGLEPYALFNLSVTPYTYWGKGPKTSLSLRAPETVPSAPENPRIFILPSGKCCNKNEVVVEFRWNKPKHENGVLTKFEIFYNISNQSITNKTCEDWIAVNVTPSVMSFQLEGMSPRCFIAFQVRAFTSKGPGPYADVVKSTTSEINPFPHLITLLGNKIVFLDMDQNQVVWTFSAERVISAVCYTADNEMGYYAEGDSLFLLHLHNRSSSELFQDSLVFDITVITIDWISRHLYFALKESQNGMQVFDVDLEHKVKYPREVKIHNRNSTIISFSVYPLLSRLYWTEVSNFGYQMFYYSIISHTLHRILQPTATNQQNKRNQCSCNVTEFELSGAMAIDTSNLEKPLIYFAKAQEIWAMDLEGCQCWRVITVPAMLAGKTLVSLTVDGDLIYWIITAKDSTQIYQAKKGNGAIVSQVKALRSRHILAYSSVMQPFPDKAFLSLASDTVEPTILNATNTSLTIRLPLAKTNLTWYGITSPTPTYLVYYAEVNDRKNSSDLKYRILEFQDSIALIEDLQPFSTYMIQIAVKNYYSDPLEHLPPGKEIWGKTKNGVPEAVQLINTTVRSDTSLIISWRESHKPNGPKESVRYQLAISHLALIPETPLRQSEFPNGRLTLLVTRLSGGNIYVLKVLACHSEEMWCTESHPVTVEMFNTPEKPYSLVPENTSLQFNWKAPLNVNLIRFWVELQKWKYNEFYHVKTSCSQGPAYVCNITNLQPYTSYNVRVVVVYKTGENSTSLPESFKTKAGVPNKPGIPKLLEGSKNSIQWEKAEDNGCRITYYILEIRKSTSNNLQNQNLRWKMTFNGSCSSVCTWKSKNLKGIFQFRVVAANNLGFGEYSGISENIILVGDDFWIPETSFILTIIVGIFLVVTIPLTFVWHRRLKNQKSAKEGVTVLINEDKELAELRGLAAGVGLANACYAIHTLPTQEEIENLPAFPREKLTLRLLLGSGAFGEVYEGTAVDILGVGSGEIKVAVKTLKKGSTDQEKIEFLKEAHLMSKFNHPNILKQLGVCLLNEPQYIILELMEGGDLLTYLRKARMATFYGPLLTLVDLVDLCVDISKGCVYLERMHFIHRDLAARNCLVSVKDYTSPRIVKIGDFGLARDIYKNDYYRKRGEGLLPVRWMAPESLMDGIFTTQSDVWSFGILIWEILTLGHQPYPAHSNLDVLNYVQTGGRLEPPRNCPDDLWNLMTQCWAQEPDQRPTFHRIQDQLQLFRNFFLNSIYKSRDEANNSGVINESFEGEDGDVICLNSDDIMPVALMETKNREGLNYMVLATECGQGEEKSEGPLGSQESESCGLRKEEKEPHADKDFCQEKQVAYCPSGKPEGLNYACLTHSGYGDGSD

[30] = molecular target: FLT3-ITD (Homo sapiens, UniProt P36888, ITD); experiment: as above
Chain of FLT3-ITD (P36888 564-993, change not shown): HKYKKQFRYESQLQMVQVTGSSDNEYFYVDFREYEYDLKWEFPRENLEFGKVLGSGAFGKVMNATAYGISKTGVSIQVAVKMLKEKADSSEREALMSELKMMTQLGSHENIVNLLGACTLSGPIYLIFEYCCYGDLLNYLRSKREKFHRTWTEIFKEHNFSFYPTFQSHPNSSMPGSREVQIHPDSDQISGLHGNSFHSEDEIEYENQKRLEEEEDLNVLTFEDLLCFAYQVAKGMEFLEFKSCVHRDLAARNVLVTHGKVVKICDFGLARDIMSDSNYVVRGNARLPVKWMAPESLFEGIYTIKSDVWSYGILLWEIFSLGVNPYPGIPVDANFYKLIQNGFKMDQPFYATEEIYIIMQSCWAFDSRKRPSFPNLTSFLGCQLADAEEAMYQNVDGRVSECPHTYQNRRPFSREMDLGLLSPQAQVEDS

T2 sequence (P52333 whole entry): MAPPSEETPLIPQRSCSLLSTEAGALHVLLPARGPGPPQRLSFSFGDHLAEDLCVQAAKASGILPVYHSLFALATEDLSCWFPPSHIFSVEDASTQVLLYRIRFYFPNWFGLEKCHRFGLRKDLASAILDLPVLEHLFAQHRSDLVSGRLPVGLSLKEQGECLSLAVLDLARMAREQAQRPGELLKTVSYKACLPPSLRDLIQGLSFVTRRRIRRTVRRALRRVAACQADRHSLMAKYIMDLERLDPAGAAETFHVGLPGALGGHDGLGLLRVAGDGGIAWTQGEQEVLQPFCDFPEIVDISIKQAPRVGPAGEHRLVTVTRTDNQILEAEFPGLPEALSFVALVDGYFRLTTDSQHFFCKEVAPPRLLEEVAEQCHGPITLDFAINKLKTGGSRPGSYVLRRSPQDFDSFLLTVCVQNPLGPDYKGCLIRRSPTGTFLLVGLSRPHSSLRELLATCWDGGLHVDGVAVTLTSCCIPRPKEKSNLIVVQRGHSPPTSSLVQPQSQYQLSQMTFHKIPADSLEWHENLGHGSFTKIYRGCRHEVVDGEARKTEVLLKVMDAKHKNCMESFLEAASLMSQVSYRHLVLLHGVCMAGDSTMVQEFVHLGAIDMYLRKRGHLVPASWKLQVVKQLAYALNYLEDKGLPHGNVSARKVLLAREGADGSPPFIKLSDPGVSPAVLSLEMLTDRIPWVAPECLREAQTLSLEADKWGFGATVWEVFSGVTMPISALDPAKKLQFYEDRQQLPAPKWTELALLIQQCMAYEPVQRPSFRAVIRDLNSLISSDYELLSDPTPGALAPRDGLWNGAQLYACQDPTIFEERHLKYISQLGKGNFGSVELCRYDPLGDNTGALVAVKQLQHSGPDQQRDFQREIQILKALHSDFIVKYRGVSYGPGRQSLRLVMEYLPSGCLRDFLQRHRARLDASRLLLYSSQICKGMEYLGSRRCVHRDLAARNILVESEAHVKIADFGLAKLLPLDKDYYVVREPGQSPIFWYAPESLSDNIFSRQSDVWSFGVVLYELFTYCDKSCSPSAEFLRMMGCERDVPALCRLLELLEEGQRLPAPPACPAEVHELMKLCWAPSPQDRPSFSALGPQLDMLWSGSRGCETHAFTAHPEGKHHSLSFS

Cc1oncc1C(=O)Nc1ccc2cnc(-c3cc(N4CCN(C)CC4)cc(C(F)(F)F)c3)nc2c1 [Compound 7d, 5-methyl-N-(2-(3-(4-methylpiperazin-1-yl)-5-(trifluoromethyl)phenyl)quinazolin-7-yl)isoxazole-4-carboxamide]
inhibition at 10 µM [1]: 5.23% | inhibition at 10 µM [2]: 0.8% | pIC50 [3]: 6.28 | inhibition at 10 µM [4]: 17.5% | inhibition at 10 µM [5]: 20.1% | inhibition at 10 µM [6]: 5.49% | inhibition at 10 µM [7]: 15% | inhibition at 10 µM [8]: 0% | inhibition at 10 µM [9]: 17% | inhibition at 10 µM [10]: 21.2% | inhibition at 10 µM [11]: 0% | inhibition at 10 µM [12]: 0% | inhibition at 10 µM [13]: 20.5% | inhibition at 10 µM [14]: 13.5% | inhibition at 10 µM [15]: 12.8% | inhibition at 10 µM [16]: 19.7% | inhibition at 10 µM [17]: 14.6% | inhibition at 10 µM [18]: 5.19% | inhibition at 10 µM [19]: 0% | inhibition at 10 µM [20]: 13.2% | inhibition at 10 µM [21]: 8.06% | pIC50 [22]: 6.14 | inhibition at 10 µM [23]: 5.48% | inhibition at 10 µM [24]: 1% | pIC50 [25]: 6.31 | inhibition at 10 µM [26]: 2.5% | inhibition at 10 µM [27]: 19.5% | inhibition at 10 µM [28]: 0% | inhibition at 10 µM [29]: 14.4% | inhibition at 10 µM ([30]; FLT3-ITD, 10 µM): 95.2% | pIC50 ([30]; read-out: IC50 against FLT3-ITD): 6.52
